Key:
rat [1] = details: Subchronic oral toxicity in rodents, sprague dawley, Gavage/Intubation, dose end: 90 day, group: systemic
rat [2] = details: Multigenerational reproductive toxicity study, sprague dawley, Oral, Gavage/Intubation, dose end: 2 generation
rat [3] = details: Multigenerational reproductive toxicity study, sprague dawley, Oral, Gavage/Intubation, dose end: 1 generation
rat [4] = details: Prenatal developmental toxicity study, sprague dawley, Oral, Gavage/Intubation, dose end: 20 GD
rat [5] = details: Subchronic oral toxicity in rodents, sprague dawley, Gavage/Intubation, dose end: 90 day, group: systemic; remark: listed apart in the source
rat [6] = details: Subchronic oral toxicity in rodents, other, Feed, dose end: 90 day, group: systemic
mouse [7] = details: Subchronic oral toxicity in rodents, b6c3f1, Feed, dose end: 15 week
rabbit = details: Prenatal developmental toxicity study, new zealand white, Oral, Gavage/Intubation, dose end: 19 GD
mouse [8] = details: Combined chronic toxicity/carcinogenicity, b6c3f1, Oral, Feed, dose end: 104 week, group: systemic
rat [9] = details: Combined chronic toxicity/carcinogenicity, sprague dawley, Oral, Feed, dose end: 104 week, group: systemic
rat [10] = details: Prenatal developmental toxicity study, sprague dawley, Oral, Gavage/Intubation, dose end: 15 GD
dog [11] = details: Subchronic oral toxicity in nonrodent, beagle, Gavage/Intubation, dose end: 13 week, group: systemic, systemic / hematology / mean corpuscular hemoglobin (mch) / mean corpuscular hemoglobin (mch) + systemic / hematology / mean corpuscular …
rat [12] = details: Multigenerational reproductive toxicity study, sprague dawley, Oral, Feed, dose end: 2 generation
dog [13] = details: Chronic toxicity; beagle; Oral; Gavage/Intubation; dose end: 52 week; group: systemic; systemic / clinical chemistry / albumin / albumin + systemic / clinical chemistry / alkaline phosphatase (alp/alk) / alkaline phosphatase (…
[14] = systemic / clinical chemistry / albumin / albumin + systemic / clinical chemistry / protein / protein + systemic / pathology microscopic / …
[15] = systemic / organ weight / spleen / absolute + systemic / organ weight / spleen / relative to body weight + systemic / organ weight / spleen…
[16] = group: offspring, systemic / organ weight / spleen / absolute
[17] = group: offspring, systemic / organ weight / spleen / absolute + systemic / pathology microscopic / kidney / edema + systemic / pathology microscopic / kidney…
[18] = group: parental, systemic / in life observation / body weight / body weight + systemic / in life observation / body weight / body weight gain + systemic / in…
[19] = group: offspring, systemic / in life observation / body weight / offspring (pup) weight
[20] = group: parental, systemic / in life observation / body weight / body weight gain + systemic / in life observation / clinical signs / fur (altered appearance…
[21] = group: developmental, systemic / in life observation / body weight / fetal weight
[22] = group: maternal, systemic / in life observation / body weight / body weight + systemic / in life observation / body weight / body weight gain + systemic / in…
[23] = systemic / clinical chemistry / peroxisomal beta-oxidation analysis / peroxisomal beta-oxidation analysis + systemic / organ weight / liver…
[24] = systemic / hematology / neutrophils / neutrophils
[25] = systemic / in life observation / body weight / body weight gain
[26] = systemic / in life observation / body weight / body weight gain + systemic / clinical chemistry / albumin / albumin + systemic / clinical …
[27] = group: maternal, reproductive / reproductive performance / fertility / fertility
[28] = group: systemic, systemic / clinical chemistry / alkaline phosphatase (alp/alk) / alkaline phosphatase (alp/alk) + systemic / hematology / hematocrit (hct…
[29] = group: systemic, systemic / in life observation / food consumption / food consumption
[30] = group: developmental, systemic / in life observation / body weight / fetal weight + developmental / developmental malformation / bone / misshapen + developmental…
[31] = group: maternal, reproductive / reproductive performance / postimplantation loss / postimplantation loss + reproductive / reproductive performance / …
[32] = systemic / clinical chemistry / albumin / albumin + systemic / clinical chemistry / alkaline phosphatase (alp/alk) / alkaline phosphatase (…
[33] = systemic / organ weight / kidney / relative to body weight + systemic / organ weight / kidney / absolute
[34] = group: developmental, developmental / developmental malformation / bone / absent
[35] = group: maternal, systemic / in life observation / body weight / body weight gain
[36] = group: offspring, systemic / in life observation / body weight / offspring (pup) weight gain + systemic / in life observation / body weight / offspring (pup) …
[37] = group: parental, systemic / in life observation / body weight / body weight + systemic / in life observation / body weight / body weight gain
[38] = group: reproductive, reproductive / offspring survival early / litter size / litter size
[39] = group: reproductive, reproductive / offspring survival early / litter size / litter size + reproductive / reproductive performance / fertility / fertility

For O=S(=O)([O-])C(F)(F)C(F)(F)C(F)(F)C(F)(F)F.[K+] [PFBS-K], the LOAEL (rat [1]; [14]) was over 600 mg/kg/day, the NOAEL (rat [1]; [14]) was at least 600 mg/kg/day and the LEL (rat [1]; [15]) was 60 mg/kg/day. It also gave an NEL (rat [1]; [15]) of under 60 mg/kg/day, an LEL (rat [2]; [16]) of 30 mg/kg/day and an NEL (rat [2]; [16]) of under 30 mg/kg/day. The LOAEL (rat [2]; [17]) was over 1000 mg/kg/day, the NOAEL (rat [2]; [17]) was at least 1000 mg/kg/day and the LOAEL (rat [2]; [18]) was over 1000 mg/kg/day. For the same compound, the NEL (rat [2]; [18]) was 100 mg/kg/day, the NOAEL (rat [2]; [18]) was at least 1000 mg/kg/day and the LEL (rat [2]; group: parental, systemic / pathology microscopic / kidney / edema + systemic / pathology microscopic / kidney / hyperplasia + systemic / organ weight / …) was 300 mg/kg/day.

For O=C([O-])C(F)(F)C(F)(F)C(F)(F)C(F)(F)C(F)(F)F.[Na+] [Sodium perfluorohexanoate], the LEL (rat [3]; [19]) was 500 mg/kg/day, the LOAEL (rat [3]; [19]) was over 500 mg/kg/day and the NEL (rat [3]; [19]) was 100 mg/kg/day. It also gave an NOAEL (rat [3]; [19]) of at least 500 mg/kg/day, an LEL (rat [3]; group: parental, systemic / in life observation / body weight / body weight gain) of 100 mg/kg/day and an LOAEL (rat [3]; [20]) of over 500 mg/kg/day. For the same compound, the NEL (rat [3]; [20]) was 20 mg/kg/day, the NOAEL (rat [3]; [20]) was at least 500 mg/kg/day and the LEL (rat [4]; [21]) was 500 mg/kg/day. The LOAEL (rat [4]; [21]) was over 500 mg/kg/day, the NEL (rat [4]; [21]) was 100 mg/kg/day and the NOAEL (rat [4]; [21]) was at least 500 mg/kg/day. It also gave an LEL (rat [4]; [22]) of 500 mg/kg/day, an LOAEL (rat [4]; [22]) of over 500 mg/kg/day and an NEL (rat [4]; [22]) of 100 mg/kg/day. For the same compound, the NOAEL (rat [4]; [22]) was at least 500 mg/kg/day, the LOAEL (rat [5]; [23]) was over 500 mg/kg/day and the NOAEL (rat [5]; [23]) was at least 500 mg/kg/day. It also gave an LEL (rat [5]; [24]) of 20 mg/kg/day and an NEL (rat [5]; [24]) of under 20 mg/kg/day.

Work on CON(C)C(=O)Nc1ccc(Oc2ccc3c(c2)OC(C)(OC)CC3(C)C)cc1 (stereo not drawn) [Metobenzuron] yielded an LEL (rat [6]; [25]) of 7.29 mg/kg/day, an LOAEL (rat [6]; [25]) of 45 mg/kg/day and an NEL (rat [6]; [25]) of under 7.29 mg/kg/day. It also gave an NOAEL (rat [6]; [26]) of 6.05 mg/kg/day, an LEL (mouse [7]; [27]) of 308 mg/kg/day and an LOAEL (mouse [7]; [27]) of over 308 mg/kg/day. The NEL (mouse [7]; [27]) was 91 mg/kg/day, the NOAEL (mouse [7]; [27]) was at least 308 mg/kg/day and the LOAEL (mouse [7]; [28]) was 91 mg/kg/day. For the same compound, the NOAEL (mouse [7]; [28]) was 20 mg/kg/day, the LEL (mouse [7]; [29]) was 25 mg/kg/day and the NEL (mouse [7]; [29]) was under 25 mg/kg/day. For the same compound, the LOAEL (rabbit; [21]) was 100 mg/kg/day, the LEL (rabbit; [30]) was 100 mg/kg/day and the NEL (rabbit; [30]) was 50 mg/kg/day. For the same compound, the NOAEL (rabbit; [30]) was 50 mg/kg/day, the LEL (rabbit; [31]) was 100 mg/kg/day and the LOAEL (rabbit; [31]) was 100 mg/kg/day. For the same compound, the NEL (rabbit; [31]) was 50 mg/kg/day, the NOAEL (rabbit; [31]) was 50 mg/kg/day and the LOAEL (mouse [8]; [32]) was 139 mg/kg/day. The NOAEL (mouse [8]; [32]) was 41.1 mg/kg/day, the LEL (mouse [8]; [33]) was 6.9 mg/kg/day and the NEL (mouse [8]; [33]) was under 6.9 mg/kg/day. The LEL (rat [9]; systemic / in life observation / body weight / body weight) was 4.4 mg/kg/day, the LOAEL (rat [9]; [25]) was 23.1 mg/kg/day and the NEL (rat [9]; [26]) was 1.5 mg/kg/day. It also gave an NOAEL (rat [9]; [26]) of 4.4 mg/kg/day, an LEL (rat [10]; [34]) of 25 mg/kg/day and an NEL (rat [10]; [34]) of under 25 mg/kg/day. For the same compound, the LOAEL (rat [10]; [21]) was 50 mg/kg/day, the NOAEL (rat [10]; group: developmental, systemic / in life observation / body weight / fetal weight + developmental / developmental malformation / bone / absent + developmental / …) was 25 mg/kg/day and the LEL (rat [10]; [35]) was 25 mg/kg/day. For the same compound, the LOAEL (rat [10]; [35]) was 25 mg/kg/day, the NEL (rat [10]; [35]) was under 25 mg/kg/day and the NOAEL (rat [10]; [35]) was under 25 mg/kg/day. It also gave an LEL (dog [11]) of 25 mg/kg/day, an LOAEL (dog [11]) of 25 mg/kg/day and an NEL (dog [11]) of 5 mg/kg/day. The NOAEL (dog [11]) was 5 mg/kg/day, the LOAEL (rat [12]; group: offspring, systemic / in life observation / body weight / offspring (pup) weight gain) was 18.8 mg/kg/day and the LEL (rat [12]; [36]) was 18.8 mg/kg/day. For the same compound, the NEL (rat [12]; [36]) was 3.75 mg/kg/day, the NOAEL (rat [12]; [36]) was 3.75 mg/kg/day and the LEL (rat [12]; [37]) was 18.8 mg/kg/day. The LOAEL (rat [12]; [37]) was 37.5 mg/kg/day, the NEL (rat [12]; [37]) was 3.75 mg/kg/day and the NOAEL (rat [12]; [37]) was 18.8 mg/kg/day. It also gave an LEL (rat [12]; [38]) of 18.8 mg/kg/day, an LOAEL (rat [12]; [38]) of 18.8 mg/kg/day and an NEL (rat [12]; [39]) of 3.75 mg/kg/day. It also gave an NOAEL (rat [12]; [39]) of 3.75 mg/kg/day, an LEL (dog [13]) of 75 mg/kg/day and an LOAEL (dog [13]) of 75 mg/kg/day. The NEL (dog [13]) was 5 mg/kg/day and the NOAEL (dog [13]) was 5 mg/kg/day.
